According to the NIST ThermoML archive (doi:10.1007/s10765-010-0737-5):

Assay: xn = mol fraction of the nth substance listed
Details: Liquid; for viscosity: 101 kPa, Capillary tube (Ostwald / Ubbelohde) method; for mass density: 101.3 kPa

CCC(C)Cl (stereo not given) [2-chlorobutane] + CC(C)OC(C)C
Details	mass density [kg/m3]	viscosity [mPa·s]
283.15 K, x1 = 0.0519	740.159	0.3683
283.15 K, x1 = 0.0988	745.897	0.3716
283.15 K, x1 = 0.2006	758.792	0.3796
283.15 K, x1 = 0.3211	774.756	0.3899
283.15 K, x1 = 0.4201	788.575	0.3991
283.15 K, x1 = 0.532	804.971	0.4101
283.15 K, x1 = 0.6244	819.223	0.4199
283.15 K, x1 = 0.726	835.602	0.431
283.15 K, x1 = 0.8163	850.907	0.4413
283.15 K, x1 = 0.8817	862.411	0.4489
283.15 K, x1 = 0.9634	877.39	0.4587
283.15 K, x1 = 1	884.34	0.4631
288.15 K, x1 = 0.0519	734.981	0.3519
288.15 K, x1 = 0.0988	740.712	0.3549
288.15 K, x1 = 0.2006	753.569	0.3621
288.15 K, x1 = 0.3211	769.483	0.3713
288.15 K, x1 = 0.4201	783.251	0.3795
288.15 K, x1 = 0.532	799.602	0.3894
288.15 K, x1 = 0.6244	813.814	0.398
288.15 K, x1 = 0.726	830.144	0.408
288.15 K, x1 = 0.8163	845.414	0.4172
288.15 K, x1 = 0.8817	856.901	0.424
288.15 K, x1 = 0.9634	871.819	0.4326
288.15 K, x1 = 1	878.756	0.4365
293.15 K, x1 = 0.0519	729.792	0.3371
293.15 K, x1 = 0.0988	735.485	0.34
293.15 K, x1 = 0.2006	748.303	0.3468
293.15 K, x1 = 0.3211	764.161	0.3555
293.15 K, x1 = 0.4201	777.889	0.3632
293.15 K, x1 = 0.532	–	0.3725
293.15 K, x1 = 0.6244	808.369	0.3806
293.15 K, x1 = 0.726	824.657	0.39
293.15 K, x1 = 0.8163	839.877	0.3987
293.15 K, x1 = 0.8817	851.332	0.4051
293.15 K, x1 = 0.9634	866.214	0.4131
293.15 K, x1 = 1	873.13	0.4167
298.15 K, x1 = 0.0519	724.535	0.321
298.15 K, x1 = 0.0988	730.22	0.3239
298.15 K, x1 = 0.2006	742.995	0.3306
298.15 K, x1 = 0.3211	758.802	0.3392
298.15 K, x1 = 0.4201	772.485	0.3467
298.15 K, x1 = 0.532	788.75	0.3559
298.15 K, x1 = 0.6244	802.882	0.3639
298.15 K, x1 = 0.726	819.123	0.3731
298.15 K, x1 = 0.8163	834.307	0.3817
298.15 K, x1 = 0.8817	845.724	0.3879
298.15 K, x1 = 0.9634	860.57	0.3959
298.15 K, x1 = 1	867.474	0.3993
303.15 K, x1 = 0.0519	719.276	0.3033
303.15 K, x1 = 0.0988	724.919	0.3061
303.15 K, x1 = 0.2006	737.649	0.3127
303.15 K, x1 = 0.3211	753.411	0.3212
303.15 K, x1 = 0.4201	767.06	0.3286
303.15 K, x1 = 0.532	783.263	0.3375
303.15 K, x1 = 0.6244	797.355	0.3454
303.15 K, x1 = 0.726	813.555	0.3545
303.15 K, x1 = 0.8163	828.698	0.3628
303.15 K, x1 = 0.8817	840.084	0.369
303.15 K, x1 = 0.9634	854.895	0.3767
303.15 K, x1 = 1	861.779	0.38
308.15 K, x1 = 0.0519	713.939	0.2887
308.15 K, x1 = 0.0988	719.569	0.2915
308.15 K, x1 = 0.2006	732.261	0.2977
308.15 K, x1 = 0.3211	747.973	0.3058
308.15 K, x1 = 0.4201	761.571	0.3127
308.15 K, x1 = 0.532	777.737	0.3212
308.15 K, x1 = 0.6244	791.784	0.3287
308.15 K, x1 = 0.726	807.944	0.3374
308.15 K, x1 = 0.8163	823.046	0.3453
308.15 K, x1 = 0.8817	834.402	0.3511
308.15 K, x1 = 0.9634	849.179	0.3584
308.15 K, x1 = 1	856.044	0.3615
313.15 K, x1 = 0.0519	708.573	0.2752
313.15 K, x1 = 0.0988	714.181	0.2779
313.15 K, x1 = 0.2006	726.833	0.2838
313.15 K, x1 = 0.3211	742.484	0.2914
313.15 K, x1 = 0.4201	756.049	0.2981
313.15 K, x1 = 0.532	772.166	0.3062
313.15 K, x1 = 0.6244	786.18	0.3133
313.15 K, x1 = 0.726	802.287	0.3215
313.15 K, x1 = 0.8163	817.349	0.329
313.15 K, x1 = 0.8817	828.683	0.3345
313.15 K, x1 = 0.9634	843.42	0.3413
313.15 K, x1 = 1	850.266	0.3443

CC(C)CCl [1-chloro-2-methylpropane] + CC(C)OC(C)C
Details	mass density [kg/m3]	viscosity [mPa·s]
283.15 K, x1 = 0.0549	740.509	0.3695
283.15 K, x1 = 0.091	745.071	0.3728
283.15 K, x1 = 0.1977	758.96	0.3837
283.15 K, x1 = 0.2934	772.077	0.3947
283.15 K, x1 = 0.3911	785.941	0.4069
283.15 K, x1 = 0.5137	804.21	0.424
283.15 K, x1 = 0.6034	818.258	0.438
283.15 K, x1 = 0.6769	830.206	0.4502
283.15 K, x1 = 0.8059	852.473	0.4739
283.15 K, x1 = 0.9111	871.773	0.4955
283.15 K, x1 = 0.9646	881.981	0.5074
283.15 K, x1 = 1	888.845	0.5155
288.15 K, x1 = 0.0549	735.346	0.3532
288.15 K, x1 = 0.091	739.888	0.3565
288.15 K, x1 = 0.1977	753.737	0.3666
288.15 K, x1 = 0.2934	766.807	0.3765
288.15 K, x1 = 0.3911	780.617	0.3876
288.15 K, x1 = 0.5137	798.831	0.403
288.15 K, x1 = 0.6034	812.821	0.4152
288.15 K, x1 = 0.6769	824.734	0.4261
288.15 K, x1 = 0.8059	846.936	0.447
288.15 K, x1 = 0.9111	866.179	0.4658
288.15 K, x1 = 0.9646	876.368	0.4761
288.15 K, x1 = 1	883.211	0.4833
293.15 K, x1 = 0.0549	730.142	0.3383
293.15 K, x1 = 0.091	734.678	0.3412
293.15 K, x1 = 0.1977	748.467	0.3504
293.15 K, x1 = 0.2934	761.481	0.3595
293.15 K, x1 = 0.3911	775.245	0.3694
293.15 K, x1 = 0.5137	793.406	0.3831
293.15 K, x1 = 0.6034	807.35	0.3941
293.15 K, x1 = 0.6769	819.228	0.4038
293.15 K, x1 = 0.8059	841.356	0.4222
293.15 K, x1 = 0.9111	860.549	0.4386
293.15 K, x1 = 0.9646	870.717	0.4478
293.15 K, x1 = 1	877.539	0.454
298.15 K, x1 = 0.0549	724.887	0.3219
298.15 K, x1 = 0.091	729.395	0.3247
298.15 K, x1 = 0.1977	743.114	0.3337
298.15 K, x1 = 0.2934	756.06	0.3423
298.15 K, x1 = 0.3911	769.763	0.3515
298.15 K, x1 = 0.5137	787.825	0.3644
298.15 K, x1 = 0.6034	801.699	0.3747
298.15 K, x1 = 0.6769	813.519	0.3834
298.15 K, x1 = 0.8059	835.53	0.4003
298.15 K, x1 = 0.9111	854.603	0.4156
298.15 K, x1 = 0.9646	864.749	0.4238
298.15 K, x1 = 1	871.533	0.4296
303.15 K, x1 = 0.0549	719.603	0.3043
303.15 K, x1 = 0.091	724.11	0.3069
303.15 K, x1 = 0.1977	737.798	0.316
303.15 K, x1 = 0.2934	750.738	0.3246
303.15 K, x1 = 0.3911	764.421	0.3341
303.15 K, x1 = 0.5137	782.446	0.3469
303.15 K, x1 = 0.6034	796.305	0.357
303.15 K, x1 = 0.6769	808.11	0.3659
303.15 K, x1 = 0.8059	830.111	0.3826
303.15 K, x1 = 0.9111	849.196	0.3975
303.15 K, x1 = 0.9646	859.307	0.4058
303.15 K, x1 = 1	866.096	0.4112
308.15 K, x1 = 0.0549	714.28	0.2896
308.15 K, x1 = 0.091	718.759	0.2926
308.15 K, x1 = 0.1977	732.397	0.3012
308.15 K, x1 = 0.2934	745.3	0.3094
308.15 K, x1 = 0.3911	758.935	0.3184
308.15 K, x1 = 0.5137	776.901	0.3308
308.15 K, x1 = 0.6034	790.719	0.3404
308.15 K, x1 = 0.6769	802.492	0.3489
308.15 K, x1 = 0.8059	824.422	0.3647
308.15 K, x1 = 0.9111	843.468	0.3791
308.15 K, x1 = 0.9646	853.542	0.3867
308.15 K, x1 = 1	860.319	0.3921
313.15 K, x1 = 0.0549	708.887	0.2761
313.15 K, x1 = 0.091	713.334	0.2788
313.15 K, x1 = 0.1977	726.882	0.287
313.15 K, x1 = 0.2934	739.693	0.2948
313.15 K, x1 = 0.3911	753.227	0.3033
313.15 K, x1 = 0.5137	771.077	0.315
313.15 K, x1 = 0.6034	784.802	0.324
313.15 K, x1 = 0.6769	796.487	0.3322
313.15 K, x1 = 0.8059	818.264	0.3472
313.15 K, x1 = 0.9111	837.168	0.3607
313.15 K, x1 = 0.9646	847.176	0.3677
313.15 K, x1 = 1	853.902	0.3726
